From article PMC9821293, “Anammox Bacterial S-Adenosyl-L-Methionine Dependent Methyltransferase Crystal Structure and Its Interaction with Acyl Carrier Proteins” (International Journal of Molecular Sciences, 2023)

Target: T1, AmxMT1 (Candidatus Brocadia fulgida, UniProt A0A0M2USF2)
T1 construct: gene BROFUL_02287; five N-terminal residues removed; C-terminal TEV site and 6xHis tag, His tag cleaved; codon-optimised, pET28b, E. coli C43(DE3) with pGro7; one molecule in the asymmetric unit
T1 sequence (A0A0M2USF2 6-354): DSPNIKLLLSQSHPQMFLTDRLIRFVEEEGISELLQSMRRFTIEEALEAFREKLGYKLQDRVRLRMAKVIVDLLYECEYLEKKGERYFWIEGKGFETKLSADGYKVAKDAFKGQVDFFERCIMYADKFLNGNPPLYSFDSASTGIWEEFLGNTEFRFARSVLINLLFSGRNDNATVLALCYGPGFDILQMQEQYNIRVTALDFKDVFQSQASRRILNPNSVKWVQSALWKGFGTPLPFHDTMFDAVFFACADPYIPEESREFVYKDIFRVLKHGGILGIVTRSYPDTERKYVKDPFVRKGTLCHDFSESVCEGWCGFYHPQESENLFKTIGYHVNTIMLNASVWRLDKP
Assay: X-ray crystal structure of the complex (SAD phasing, molecular replacement)
Assay type: binding
Conditions: SAM (2.25 mM) added for crystallization, SAH found in the crystal; 5 mM DTT; HEPES pH 7.0, PEG 2000, 20 °C; cosubstrate pocket between core domain and inserted helix

Nc1ncnc2c1ncn2[C@@H]1O[C@H](CSCC[C@H](N)C(=O)O)[C@@H](O)[C@H]1O [SAH]
X-ray crystal structure of the complex (SAD phasing, molecular replacement): S-adenosyl-L-homocysteine (SAH) is located in the pocket between the core domain and inserted helix
